Where two headings read alike, the source gives them in different places.
Tests used:
COX-2 / COX-1 = details: ratio of IC80 of COX-2 to IC80 of COX-1; Warner 1999; cited from earlier work
platelet function [1] = assay: PFA-100 closure time, ex vivo whole blood, CADP reagent cartridge; type: cell-based, human
Experimental: (§1) The PFA-100 device determines closure time by simulating platelet adhesion and aggregation following vascular injury.
(§2) Study subjects (n=13) had approximately 20 mL of whole blood collected in tubes containing 3.2% (0.105 M) buffered sodium citrate (1 part anticoagulant to 9 parts blood).
(§3) Assessment of platelet function: Platelet function was evaluated using the PFA-100 Platelet Function Analyzer (Siemens Healthcare Diagnostics, Deerfield, Ill.). […] Use of this device to measure the effect of drugs on platelet adhesion is well documented. The PFA-100 device determines a sample closure time by simulating the platelet adhesion and aggregation that occurs following vascular injury. Analysis was performed using both collagen with epinephrine (CEPI) and collagen with adenosine diphosphate (CADP) reagent cartridges. […] Whole blood aliquots were treated according to the test condition and incubated for approximately 10 minutes prior to analysis in the PFA-100. All blood samples were analyzed within 2.5 hours of the time of collection. PFA-100 closure time results were reported for each test condition and reagent cartridge. […] Samples outside this range were excluded from the primary analysis.
(§4) Statistical analysis: Treatment effect on CT was analyzed using an analysis of variance (ANOVA). […] Pairwise comparisons were performed; nominal P-values were reported without controlling for multiplicity. Subgroup analysis by gender was also performed. All analyses were performed separately for each reagent.

platelet function [2] = assay: PFA-100 closure time, ex vivo whole blood, CEPI reagent cartridge; type: cell-based, human
Experimental: as §1, §2, §3, §4

[3] = cited from earlier work
pain [4] = details: intravenous; Prescribing Information; cited from earlier work
platelet aggregation = details: healthy volunteers; 0.4 mg/kg; previous studies; cited from earlier work
pain [5] = assay: Time course of analgesic effect; type: in vivo, human; details: meloxicam administration as disclosed (IV)
[6] = cited from earlier work; remark: listed apart in the source
[7] = all eligible subjects (12 subjects), 2.5 μg/mL
[8] = all eligible subjects (12 subjects), 5 μg/mL

CC(=O)Oc1ccccc1C(=O)O [Aspirin, acetylsalicylic acid]
COX-2/COX-1 IC80 ratio (COX-2 / COX-1): 3.8

CC(C)Cc1ccc(C(C)C(=O)O)cc1 (stereo not drawn) [Ibuprofen]
COX-2/COX-1 IC80 ratio (COX-2 / COX-1): 2.6

O=C(c1ccccc1)c1ccc2n1CCC2C(=O)O (stereo not drawn) [Ketorolac]
LS mean closure time (platelet function [1]; [7]): 82.08 s | LS mean closure time (platelet function [1]; [8]): 86.36 s | difference in closure time vs untreated control (platelet function [1]; all tested concentrations): no statistically significant differences | LS mean closure time (platelet function [1]; final analysis set (8 subjects), 2.5 μg/mL in whole blood): 79.41 s | LS mean closure time (platelet function [1]; final analysis set (8 subjects), 2.5 μg/mL in whole blood, listed as ketorolac): 79.41 (5.31) seconds | LS mean closure time (platelet function [1]; final analysis set (8 subjects), 5 μg/mL in whole blood): 87.95 s | LS mean closure time (platelet function [1]; final analysis set (8 subjects), 5 μg/mL in whole blood, listed as ketorolac): 87.95 (5.66) seconds | LS mean closure time (platelet function [2]; [7]): 193.17 s | LS mean closure time (platelet function [2]; [8]): 191.58 s | LS mean closure time (platelet function [2]; final analysis set (8 subjects), 2.5 μg/mL): 180.87 s | LS mean closure time (platelet function [2]; final analysis set (8 subjects), 5 μg/mL): 143.38 s | prolongation in closure time vs untreated control (platelet function [2]; therapeutic (and for meloxicam IV supratherapeutic) concentrations): significant prolongations | peak concentration ([3]; following 15-mg IV dose): ~2.5 µg/mL | peak concentration ([3]; following 30-mg IV dose): ~5 µg/mL | time to onset of pain relief (pain [4]): up to 30 minutes | bleeding time (platelet aggregation): prolonged bleeding times | epinephrine-, adenosine-, and collagen-induced platelet aggregation (platelet aggregation): significant inhibition | COX-2/COX-1 IC80 ratio (COX-2 / COX-1): 294

Cc1cnc(NC(=O)C2=C(O)c3ccccc3S(=O)(=O)N2C)s1 [Meloxicam, 4-hydroxy-2-methyl-N-(5-methyl-2-thiazolyl)-2H-1,2-benzothiazine-3-carboxamide-1,1-dioxide]
therapeutic window (pain [5]): at least 24 hours | water solubility [6]: poor water solubility

COc1ccc2cc([C@H](C)C(=O)O)ccc2c1 [Naproxen]
COX-2/COX-1 IC80 ratio (COX-2 / COX-1): 3

CS(=O)(=O)c1ccc(C2=C(c3ccccc3)C(=O)OC2)cc1 [Rofecoxib]
COX-2/COX-1 IC80 ratio (COX-2 / COX-1): <0.05

From US20220008430A1, “METHODS OF TREATING SUBJECTS HAVING PLATELET DYSFUNCTION WITH IV MELOXICAM” (priority 2018, published 2022)
